Assay in all cases: growth of human tumour cells (NCI), 48 h
For test [1], the system named is 786-0 renal.
Test [2] has as its system HL-60(TB) leukemia.
Test [3] has as its system HOP-62 NSCLC.
Test [4] has as its system HOP-92 NSCLC.
For test [5], the system named is MOLT-4 leukemia.
For test [6], the system named is NCI-H226 lung.
Test [7] relates to SK-MEL-2 melanoma.
For test [8], the system named is SK-MEL-5 melanoma.
The subject of test [9] is UACC-257 melanoma.
The subject of test [10] is UACC-62 melanoma.

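Cultured in 96-well plates, cells were exposed to test compound for 48 hours across five concentrations. At the GI50, growth is halved. TGI is the concentration that stops growth completely.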

Regarding `O=C(Nc1ccc(N2CCNCC2)cc1)c1[nH]ncc1Nc1ncnc2sc3c(c12)CCC3`, the GI50 in [1] is 0.254 µM; in [2], 1.2 µM; in test [3], 0.621 µM; in test [4], 0.0302 µM; in [5] it was 0.0835 µM; in [6], 0.548 µM. For the same molecule, the GI50 was 1.27 µM in [7], 0.381 µM in [8], 0.478 µM in test [9] and 1.07 µM in test [10]. The TGI in test [1] was determined as 1.52 µM; in [2], 3.28 µM; in [3] it was 2.79 µM; in [4], 1.91 µM; in test [5] it was 1.07 µM; in [6] it was 2.56 µM. Besides, the TGI in [7] is 3.01 µM; in test [8], 1.79 µM; in test [9], 2.43 µM; in test [10] it was 2.31 µM.
As to `COc1cc2c(cc1OC)C(=O)/C(=C/c1cccc(OCC(=O)c3ccccc3)c1)C2`, the GI50 in test [1] was 35.5 µM; in test [2] it was 6.44 µM; in test [3] it was 35.8 µM; in test [4], 0.569 µM; in test [5], 2.58 µM; in test [6], 20.2 µM. Besides, the GI50 in test [7] is 10.2 µM; in [8] it was 4.24 µM; in [9] it was 49.1 µM; in test [10] it was 8.07 µM. For the same molecule, the TGI is more than 100 µM in test [1]; 61.8 µM in [2]; more than 100 µM in [3]; 27.8 µM in test [4]; 14 µM in test [5]; more than 100 µM in test [6]. Besides, the TGI in test [7] is more than 100 µM; in [8] it was more than 100 µM; in test [9] it was more than 100 µM; in [10], 90.8 µM.
Regarding `Cc1ccc(OCC(=O)N2N=C(c3ccccc3)CC2(O)c2ccccc2)cc1` (stereo not given), the TGI in test [1] is 30 µM; in [2] it was more than 100 µM; in test [3], 46 µM; in test [4], more than 100 µM; in [5] it was more than 100 µM; in [6], 52.5 µM. For the same molecule, the TGI in test [7], in test [9] and in [10] was more than 100 µM each time.
Consider `O=C(Oc1ccc(Cl)cc1Cl)c1ccccc1Nc1ccnc(C(F)(F)F)c1`, for which the GI50 is 1.93 µM in [1]; 6.63 µM in test [2]; 11.6 µM in test [4]; more than 100 µM in [5]; 3.46 µM in test [6]; 20.5 µM in test [7]. Moreover, the GI50 in test [8] is 2.85 µM; in [9] it was 10.6 µM; in [10] it was 2.29 µM. Moreover, the TGI was 5.87 µM in [1]; more than 100 µM in [2]; 43.4 µM in test [4]; more than 100 µM in test [5]; 18.6 µM in test [6]; more than 100 µM in test [7]. The TGI stood at 10.5 µM in test [8], 26 µM in [9] and 7.06 µM in [10].
With `CC(=O)Nc1ccc2c(c1)c(C1=C(c3cn(C)c4ccccc34)C(=O)NC1=O)cn2C`, the GI50 is 1.28 µM in test [1]; 0.913 µM in test [2]; 1.98 µM in [3]; 0.807 µM in test [4]; 2.4 µM in test [5]; 3.1 µM in test [6]. The GI50 in test [7] is 0.94 µM; in [8] it was 1.45 µM; in test [9] it was more than 21.6 µM; in test [10], 1.15 µM. For the same molecule, the TGI in test [1] is more than 25 µM; in [2] it was 4.9 µM; in test [3], more than 25 µM; in [4] it was 12 µM; in [5] it was 13.8 µM; in [6], more than 25 µM. Further, the TGI in test [7] is 5.74 µM; in test [8], more than 25 µM; in test [9], more than 25 µM; in test [10], more than 25 µM.
For the molecule `O=C(CCCCCCSc1nc(-c2ccccc2)cc(-c2ccc(Cl)cc2)n1)NO`, the GI50 in test [1] was 2.22 µM; in test [2] it was 2.16 µM; in test [3], 1.96 µM; in [4], 1.75 µM; in test [5], 0.557 µM; in test [6] it was 2.59 µM. Also, the GI50 was 3.65 µM in [7], 1.69 µM in test [8], 2.67 µM in test [9] and 1.37 µM in [10]. Further, the TGI came to 6.92 µM in test [1]; 4.84 µM in test [2]; 5.24 µM in test [3]; 5.44 µM in test [4]; 4.26 µM in test [5]; 11.8 µM in test [6]. The TGI in test [7] was found to be 16.2 µM; in test [8], 3.93 µM; in [9], 11.4 µM; in [10], 3.5 µM.
Regarding `CCOc1ccccc1NC(=O)C(=O)CC(=O)c1c(C)n([O-])c2ccccc2[n+]1=O`, the TGI in test [1], in test [2], in [3], in test [4], in test [5] and in test [6] was more than 100 µM in each case. In addition, the TGI in [7], in test [8], in test [9] and in [10] was more than 100 µM each time.
Turning to `COc1cc(-c2nn(-c3ccc(NC(=O)c4ccc(Cl)c(Cl)c4)cc3)cc2-c2ccncc2)ccc1Cl`, the GI50 was 2.05 µM in [1]; 8.03 µM in test [2]; 2.28 µM in [3]; more than 100 µM in [4]; 5.29 µM in test [5]; more than 100 µM in test [6]. In addition, the GI50 was 5.74 µM in test [7], more than 100 µM in test [9] and 6.34 µM in test [10]. For the same molecule, the TGI in test [1] is 4.59 µM; in test [2], more than 100 µM; in test [3], 7.51 µM; in test [4], more than 100 µM; in test [5], more than 100 µM; in [6] it was more than 100 µM. Further, the TGI in test [7], in test [9] and in [10] was more than 100 µM each time.

These data come from PubChem BioAssay (NCI).
